Paper PMC7377376, “Drug targeting CYP2E1 for the treatment of early-stage alcoholic steatohepatitis” (PLoS ONE, 2020)

Assays:
ethanol-fed Wistar rats [1] = test: Liver and serum lipid parameters of ethanol-fed rats; type: in vivo, rat; conditions: for liver cholesterol decrease compared to disease group / reduction of ethanol effect on hepatic cholesterol / reduction of ethanol effect on hepatic triglycerides / liver phospholipids decrease compared to disease group / liver triglycerides decrease compared to disease group / reduction of ethanol effect on hepatic phospholipids: liver; for reduction of ethanol effect on hepatic triglycerides: average over 0.4/4/40 mg/kg b.w. (UDCA 40 mg/kg), oral, 10 weeks; for liver phospholipids decrease compared to disease group / liver triglycerides decrease compared to disease group / reduction of ethanol effect on hepatic phospholipids / reduction of ethanol effect on serum triglycerides / serum triglycerides decrease compared to disease group: average over doses (UDCA 40 mg/kg)
Source text: (§1) A total of 68 female Wistar rats (Institute of Pharmacology and Biochemistry Breeding House, Minsk, Belarus) aged 80–90 days and weighting 180–200 g at the beginning of the experiments were used in the study. Each rat group (n = 6–8) was housed in a separate cage and had free access to the liquid diet during the full study period. Prior to the study, the animals were habituated for seven days to the cage conditions and experimental handling. The rats were maintained in a controlled experimental environment (20–25°C, 40–50% humidity, 12 h light per day, room with a 12-h light/dark cycle).
(§2) Rats were divided into ten groups characterized by the diet and the test compounds (S1 Table). Group 1 is the first control group in which a normal solid standard diet was fed for 12 weeks. All other groups received the liquid Lieber-DeCarli (LDC) diet (S2 Table), which combines food and drink in a liquid manner. It was prepared by ssniff Spezialdiäten GmbH, Soest. The addition of maltodextrin to this diet should compensate the pure caloric effect of ethanol, whereby 1.77 g maltodextrin replaces 1 g ethanol. The calorie value of both the control and ethanol diets was the same: 35% calories from fat, 11% from carbohydrates, 18% from protein and 36% from ethanol.
(§3) In the first two weeks rats of all groups–with the exception of group 1 –were fed with LDC diet plus maltodextrin in an appropriate amount to adapt the animals to the liquid diet. Group 2 is the second control group in which the isocaloric diet was administered for further 10 weeks until the end of the experiment. […] The test compounds I-ol, I-an and UDCA were dissolved in a 0.8% aqueous HPMC gel to obtain the appropriate concentrations: (1) I-ol with 0.4, 4 and 40 mg/kg b. w. (2) I-an with 0.4, 4 and 40 mg/kg b. w. (3) UDCA with 40 mg/kg b. w. Rats of group 2 and 3 received only HPMC as a placebo. The LDC diets were fed ad libitum and their intake per cage was controlled daily. The corresponding bottles were stored in the cages from 08:00 a. m. until 06:00 p. m. and replaced by drinking water bottles overnight until 08:00 a. m. in the next morning. Every day at the same time, the test compounds or only HPMC were administered intragastrically by oral gavage with an administration volume of 2 ml/kg b. w. After ten weeks of treatment, the rats were anesthetized with an intraperitoneal injection of a 5% pentobarbital solution and then killed by aorta scarification. Their livers were dissected and liver pieces frozen and stored in liquid nitrogen. A part of the liver was fixed for histological investigations. Blood was collected before sacrifice, centrifuged for serum preparation and finally stored in liquid nitrogen.
The serum marker enzyme activities, alanine aminotransferase (ALT), aspartate aminotransferase (AST), alkaline phosphatase (AP) and gamma-glutamyltransferase (γ-GT) as well as triglycerides and bilirubin were measured according to manufacturer’s instructions using standard commercial kits from Lachema (PLIVA-Lachema Diagnostika, Czech Republic). Serum concentrations of leptin, adiponectin and TNF-alpha were analyzed using commercial ELISA test kits: BioCat GmbH (Heidelberg, German) for adiponectin and TNF-alpha, BioVendor Laboratory Medicine Inc. (Brno, Czech Republic) for leptin. Insulin serum concentration was determined by radioimmunoassay using the commercially available kit RIO-insulin-PG-J125 (IBOCH, Minsk, Belarus). Glucose serum concentration was determined by the Accu-Check Active blood glucose testing system from Roche-Diagnostics GmbH (Mannheim, Germany).
Lipids were extracted with a chloroform: methanol mixture (2:1 v/v). Neutral lipids and phospholipids were separated into classes by thin-layer chromatography (TLC). Lipid fractions (triglycerides, cholesterol and its fractions) were measured in extracts from scraped spots by routine methods using the appropriate commercial kits. […]

ethanol-fed Wistar rats [2] = test: Oxidative stress parameters in liver of ethanol-fed rats (Lieber-DeCarli diet); type: in vivo; parameters: GR activity reduction compared to disease group / increase of ethanol effect on GR activity / hydrogen peroxide amount reduced below the reference value: concentration or dose not given beside the values; conditions: rat liver; for reduction of ethanol effect on hydrogen peroxide: I-ol, I-an 0.4/4/40 mg/kg b.w., UDCA 40 mg/kg; for reduction of ethanol effect on hydrogen peroxide / hydrogen peroxide decrease compared to disease group / reduction of ethanol effect on reduced glutathione (GSH): oral; for reduction of ethanol effect on hydrogen peroxide / hydrogen peroxide decrease compared to disease group / reduction of ethanol effect on reduced glutathione (GSH) / SRA decrease compared to disease group: 10 weeks; for increase of ethanol effect on GR activity: as worded in Fig 3 legend; for GSH elevation compared to disease group / SRA decrease compared to disease group: average over 0.4/4/40 mg/kg b.w.; for SRA decrease compared to disease group: daily oral gavage; for reduction of ethanol effect on glutathione reductase (GR) activity: average over doses (UDCA 40 mg/kg); for GPx activity below the reference value in healthy animals: highest concentration (UDCA 40 mg/kg b.w.); for reduction of ethanol effect on glutathione peroxidase (GPx) activity: on average
Source text: as §1, §2, §3
The generation of reactive oxygen species (ROS) in rat liver was evaluated by NADPH-induced chemiluminescence with amplification by both luminol for the detection of superoxide (SRA) radical anion and lucigenin detecting hydrogen peroxide as described by Müller-Peddinhaus. In short, liver pieces were homogenized in 0.1 M sodium phosphate buffer pH 7.4. The homogenates were centrifuged at 9,000 x g at 0°C and aliquots were used for the measurement. Reduced glutathione (GSH) was determined by a modified Ellman`s method: 0.2 ml of the liver homogenates’ supernatant were added to 1.6 ml of an EDTA-/sodium […] solution. The absorbance was read at […] against blanks. GSH solution—prepared immediately before use—served as a standard. End products of the lipid peroxidation reaction are equivalent to TBARS (thiobarbituric acid-reacting substances) and their concentration was measured according to Buege et al.. The enzymatic activity of cytosolic glutathione peroxidase (GPx) and microsomal glutathione reductase (GR) were determined as described by Buko at al.. Catalase activity was evaluated by spectrophotometric measurement using hydrogen peroxide as a substrate according to Beers et al.. […]

[3] = parameters: method as in earlier work; conditions: compared among I-ol, I-an and I-phosphocholines; ref "ω-imidazolyl-alkyl derivatives as new preclinical drug candidates for NASH therapy"; cited from earlier work
[4] = First pharmacokinetic study of I-ol, calculated blood concentration; type: in vivo; conditions: rat
Procedure: Following these studies, we performed a single pharmacokinetic study with I-ol to get evidence for a possible further development of this lead compound. The complete study is summarized in the Word document " First pharmacokinetic study of I-ol".
Assuming a maximum oral bioavailability of 0.1 percent for I-ol, the following comparison results:
The peroral intake of 0.4 mg I-ol/kg body weight of the rat leads to a blood concentration of 6.3 ng I-ol/ml, which corresponds to 26.3 nmol I-ol/l. An average body weight of 230 g and a blood volume of 14.5 ml was assumed. The molecular mass of I-ol is 240 g/mol. An oral bioavailability of 0.1% was used despite reasonable doubt about the finality of this amount.

[5] = average over 0.4/4/40 mg/kg b.w. (UDCA 40 mg/kg)

SMILES	liver cholesterol decrease compared to disease group (ethanol-fed Wistar rats [1]; UDCA 40 mg/kg)	reduction of ethanol effect on hepatic cholesterol (ethanol-fed Wistar rats [1]; UDCA 40 mg/kg)	reduction of ethanol effect on hepatic triglycerides (ethanol-fed Wistar rats [1])	liver phospholipids decrease compared to disease group (ethanol-fed Wistar rats [1])	liver triglycerides decrease compared to disease group (ethanol-fed Wistar rats [1])	reduction of ethanol effect on hepatic phospholipids (ethanol-fed Wistar rats [1])	reduction of ethanol effect on serum VLDL (ethanol-fed Wistar rats [1]; serum, UDCA 40 mg/kg)	serum VLDL decrease compared to disease group (ethanol-fed Wistar rats [1]; serum, average over doses)	reduction of ethanol effect on serum triglycerides (ethanol-fed Wistar rats [1]; serum)	serum triglycerides decrease compared to disease group (ethanol-fed Wistar rats [1]; serum)	GR activity reduction compared to disease group (ethanol-fed Wistar rats [2])	reduction of ethanol effect on hydrogen peroxide (ethanol-fed Wistar rats [2])	increase of ethanol effect on GR activity (ethanol-fed Wistar rats [2])	GSH elevation compared to disease group (ethanol-fed Wistar rats [2])	hydrogen peroxide decrease compared to disease group (ethanol-fed Wistar rats [2]; [5])	reduction of ethanol effect on reduced glutathione (GSH) (ethanol-fed Wistar rats [2]; [5])	SRA decrease compared to disease group (ethanol-fed Wistar rats [2])	GPx activity elevation compared to disease group (ethanol-fed Wistar rats [2]; average over doses)	reduction of ethanol effect on glutathione reductase (GR) activity (ethanol-fed Wistar rats [2])	TBARS level below the reference values of healthy animals (ethanol-fed Wistar rats [2]; highest concentration)	further results
CCCCCCCCCCCCn1ccnc1 [I-an, 1-Imidazolyldodecane]	11%	82%	73%	20%	41%	completely eliminated	59%	18%	83%	41%	11%	completely reduced	43%	94%	78%	55%	43%	10%	43%	31%	reduction of ethanol effect on serum LDL cholesterol (ethanol-fed Wistar rats [1]; serum, UDCA 40 mg/kg): 70%; serum LDL cholesterol decrease compared to disease group (ethanol-fed Wistar rats [1]; serum, average over doses): 24%; hydrogen peroxide amount reduced below the reference value (ethanol-fed Wistar rats [2]): 56%; reduction of ethanol effect on TBARS (ethanol-fed Wistar rats [2]; [5]): 93%; TBARS decrease compared to disease group (ethanol-fed Wistar rats [2]; average over doses): 40%; GSH value above the reference value of healthy animals (ethanol-fed Wistar rats [2]; highest concentration): 2%; GPx activity below the reference value in healthy animals (ethanol-fed Wistar rats [2]): 10%; reduction of ethanol effect on glutathione peroxidase (GPx) activity (ethanol-fed Wistar rats [2]): completely reduced
OCCCCCCCCCCCCn1ccnc1 [I-ol]	no influence	no influence	71%	13%	40%	65%	55%	17%	91%	44%	10%	completely reduced	41%	62%	75%	36%	36%	17%	41%	11%	tolerability in acute toxicity study (in words) [3]: best tolerated compound; maximum oral bioavailability ([4]; oral, assumed value from first pharmacokinetic study): ≤ 0.1%; calculated blood concentration ([4]; peroral 0.4 mg/kg body weight, bioavailability 0.1% assumed): 26.3 nmol I-ol/l; calculated blood concentration ([4]; peroral 0.4 mg/kg body weight, bioavailability 0.1%, blood volume 14.5 ml, body weight 230 g assumed): 6.3 ng I-ol/ml; calculated blood concentration ([4]; peroral 4 mg/kg, bioavailability 0.1% assumed): 263 nmol/L; calculated blood concentration ([4]; peroral 40 mg/kg, bioavailability 0.1% assumed): 2630 nmol/L; reduction of ethanol effect on serum LDL cholesterol (ethanol-fed Wistar rats [1]; serum, lowest concentration): 61%; TBARS decrease compared to disease group (ethanol-fed Wistar rats [2]; highest concentration): 50%; GPx activity below the reference value in healthy animals (ethanol-fed Wistar rats [2]): 8%; reduction of ethanol effect on glutathione peroxidase (GPx) activity (ethanol-fed Wistar rats [2]): completely reduced
